Literature values as cited in PMC8184532 (European Journal of Clinical Pharmacology, 2021).
Like-named read-outs stand apart in the source and are kept apart here.

Assays:
[1] = coadministered with ritonavir; Stader et al.

Structure (SMILES): CCOC(=O)C1=C(COCCN)NC(C)=C(C(=O)OC)C1c1ccccc1Cl (stereo not shown) [amlodipine]
- increase in amlodipine exposure [1]: 90%
- increase in amlodipine exposure (coadministered with antiviral agents for chronic hepatitis C or ritonavir-boosted indinavir, non-compartmental analyses): 2 fold
- increase in amlodipine exposure (coadministered with ritonavir-boosted indinavir, healthy volunteers): 90%
- increase in amlodipine exposure (in the presence of diltiazem, a CYP3A4 inhibitor, summary of product characteristics): 60%
